Measured values published in patent US20100144855A1, “APPLICATION OF SEDOISOPROSAN FOR PREPARATION OF MEDICINE FOR TREATMENT OF HUMAN HBeAg POSITIVE CHRONIC HEPATITIS B” (priority 2008, published 2010).

Assay: clinical trial, safety in HBeAg positive chronic hepatitis B patients
Format: in vivo, human
From the text: The clinical trial protocol was designed according to the randomized, double-blind and controlled principle. The clinical efficacy and the safety of sedoisoprosan for therapy on human HBeAg positive chronic hepatitis B is defined according to the changes of vivo HBV-DNA level, ALT level, vital signs, blood routine indexes, blood biochemical indexes and thyroid function indexes before and after administration and the incidence of adverse events.
Patients enrolled in the clinical trials were randomly divided into four groups, i.e. negative control group (800 mg mannite), low dose group (200 mg sedoisoprosan with 600 mg mannite), median dose group (400 mg sedoisoprosan with 400 mg mannite) and high dose group (800 mg sedoisoprosan) respectively. Each patient was assigned with a CRF No. which was randomly generated by computer.
Baseline assessment was performed on the day of the first administration, which included medical examination, hematological examination, blood biochemical examination, thyroid function examination, ALT examination and quantitative detection of HBV-DNA. The medical examination included the examination of stature, avoirdupois, blood pressure and pulse rate. The hematological examination included the leucocyte, neutrophil, erythrocyte, platelet and haemoglobin counts, and the prothrombin time. The blood biochemical examination included the examination of serum potassium, sodium, GOT, total bilirubin, AKP, total protein, albumin, total cholesterol, triglyceride, urea nitrogen, creatinine and glucose.
The patients were followed up at the 1st, 2nd, 4th, 8th and 12th week of the treatment. The blood biochemical examination and the quantitative detection of HBV-DNA was performed at the 2nd, 4th, 8th and 12th week of the treatment, and the adverse events were recorded at the same time. The thyroid function examination was performed at the 12th week of the treatment.
The safety indexes included vital signs, clinical laboratory parameters, adverse events, important adverse events, serious adverse events and the early termination cases. The safety analysis should be performed on patients who have received at least once administration and were evaluated after the administration.
The detection of vital signs and laboratory parameters and the recording for adverse events was performed at baseline and at the 1st, 2nd, 4th, 8th and 12th week of the treatment. The vital signs and laboratory parameters were evaluated by the changes thereof before and after the treatment. The incidence of adverse events was figured by the proportion of patients having adverse events during the treatment, and the evaluation of adverse events included the kinds, grades and the relationship to the drugs. The adverse events were recorded by descriptive statistics, and comparison of the incidence thereof between the four groups was performed by Fisher probabilistic test.

[1] = median dose group, 400 mg, the 12th week
[2] = patient CRF 3, high dose group (800 mg)
[3] = patient CRF 7, low dose group (200 mg)
[4] = patient CRF 10, low dose group (200 mg)
[5] = patient CRF 14, low dose group (200 mg)
[6] = patient CRF 15, median dose group (400 mg)
[7] = patient CRF 17, low dose group (200 mg)
[8] = patient CRF 19, high dose group (800 mg)
[9] = patient CRF 20, median dose group (400 mg)
[10] = patient CRF20, median dose group, after 8 weeks' treatment
[11] = patient CRF 32, median dose group (400 mg)
[12] = patient CRF 60, median dose group (400 mg)

CC1(C)OC2C3COC(CO)(O3)C(O)C2O1 (stereo not drawn) [sedoisoprosan, isopropylidene sedoheptulosan]
Avoirdupois [1]: 59.88 ± 8.18 kg | Diastolic Pressure [1]: 74.77 ± 5.15 mmHg | Pulse rate [1]: 78.00 ± 4.53 times/min | Respiratory frequency [1]: 19.31 ± 2.66 times/min | Systolic Pressure [1]: 115.69 ± 9.67 mmHg | reason for early termination (one patient, low dose group, after 6 weeks' treatment): progressive increasing ALT level | Adverse event Liver Dysfunction: Outcome [2]: Remission Without Sequela | Adverse event Liver Dysfunction: Relation to the study drug [2]: Unrelated | Adverse event Liver Dysfunction: Severity [2]: Light | Adverse event Urinary Tract Infection: Outcome [3]: Remission Without Sequela | Adverse event Urinary Tract Infection: Relation to the study drug [3]: Unrelated | Adverse event Urinary Tract Infection: Severity [3]: Light | Adverse event Progressive Increase in ALT Level: Outcome [4]: Reexamination of Liver Function After A Week | Adverse event Progressive Increase in ALT Level: Relation to the study drug [4]: Maybe Unrelated | Adverse event Progressive Increase in ALT Level: Severity [4]: Middle | Adverse event Alopecia: Outcome [5]: No Change | Adverse event Alopecia: Relation to the study drug [5]: Maybe Related | Adverse event Alopecia: Severity [5]: Light | Adverse event Gingival Bleeding: Outcome [5]: Remission Without Sequela | Adverse event Gingival Bleeding: Relation to the study drug [5]: Maybe Unrelated | Adverse event Gingival Bleeding: Severity [5]: Light | Adverse event Liver Dysfunction: Outcome [5]: Remission Without Sequela | Adverse event Liver Dysfunction: Relation to the study drug [5]: Maybe Unrelated | Adverse event Liver Dysfunction: Severity [5]: Light | Adverse event Pharyngoxerosis: Outcome [5]: Remission Without Sequela | Adverse event Pharyngoxerosis: Relation to the study drug [5]: Unrelated | Adverse event Pharyngoxerosis: Severity [5]: Light | Adverse event Alopecia: Outcome [6]: No Change | Adverse event Alopecia: Relation to the study drug [6]: Maybe Related | Adverse event Alopecia: Severity [6]: Light | Adverse event Emesis: Outcome [6]: Remission Without Sequela | Adverse event Emesis: Relation to the study drug [6]: Maybe Unrelated | Adverse event Emesis: Severity [6]: Light | Adverse event Gingival Bleeding: Outcome [6]: Remission Without Sequela | Adverse event Gingival Bleeding: Relation to the study drug [6]: Maybe Unrelated | Adverse event Gingival Bleeding: Severity [6]: Light | Adverse event Increase in ALT Level: Outcome [6]: Remission Without Sequela | Adverse event Increase in ALT Level: Relation to the study drug [6]: Maybe Unrelated | Adverse event Increase in ALT Level: Severity [6]: Light | Adverse event Alopecia: Outcome [7]: No Change | Adverse event Alopecia: Relation to the study drug [7]: Maybe Related | Adverse event Alopecia: Severity [7]: Light | Adverse event ALT 74 U/L, TBil 133.1: Outcome [8]: Remission Without Sequela | Adverse event ALT 74 U/L, TBil 133.1: Relation to the study drug [8]: Maybe Related | Adverse event ALT 74 U/L, TBil 133.1: Severity [8]: Middle | Adverse event Aggravated Muscle Ache: Outcome [8]: Remission Without Sequela | Adverse event Aggravated Muscle Ache: Relation to the study drug [8]: Maybe Related | Adverse event Aggravated Muscle Ache: Severity [8]: Middle | Adverse event Costalgia And Notalgia: Outcome [8]: Remission Without Sequela | Adverse event Costalgia And Notalgia: Relation to the study drug [8]: Maybe Related | Adverse event Costalgia And Notalgia: Severity [8]: Middle | Adverse event Generalized Muscle Ache: Outcome [8]: Remission Without Sequela | Adverse event Generalized Muscle Ache: Relation to the study drug [8]: Maybe Related | Adverse event Generalized Muscle Ache: Severity [8]: Light | Adverse event Acid Regurgitation: Outcome [9]: Remission Without Sequela | Adverse event Acid Regurgitation: Relation to the study drug [9]: Maybe Related | Adverse event Acid Regurgitation: Severity [9]: Light | Adverse event Aggravated Digestive Symptom: Outcome [9]: Remission Without Sequela | Adverse event Aggravated Digestive Symptom: Relation to the study drug [9]: Related | Adverse event Aggravated Digestive Symptom: Severity [9]: Middle | Adverse event Dark Urine: Outcome [9]: Remission Without Sequela | Adverse event Dark Urine: Relation to the study drug [9]: Related | Adverse event Dark Urine: Severity [9]: Middle | Adverse event Epigastric Discomfort: Outcome [9]: Remission Without Sequela | Adverse event Epigastric Discomfort: Relation to the study drug [9]: Related | Adverse event Epigastric Discomfort: Severity [9]: Middle | Adverse event Hypodynamia: Outcome [9]: Remission Without Sequela | Adverse event Hypodynamia: Relation to the study drug [9]: Related | Adverse event Hypodynamia: Severity [9]: Middle | Adverse event Icterus: Outcome [9]: Remission Without Sequela | Adverse event Icterus: Relation to the study drug [9]: Related | Adverse event Icterus: Severity [9]: Middle | ALT level at early termination [10]: 343 U/L | AST level at early termination [10]: 517 U/L | TBil level at early termination [10]: 68.1 µmol/L | Adverse event Toothache And Periodontitis: Outcome [11]: Remission Without Sequela | Adverse event Toothache And Periodontitis: Relation to the study drug [11]: Unrelated | Adverse event Toothache And Periodontitis: Severity [11]: Middle | Adverse event Upper Respiratory Tract Infection: Outcome [12]: Remission Without Sequela | Adverse event Upper Respiratory Tract Infection: Relation to the study drug [12]: Unrelated | Adverse event Upper Respiratory Tract Infection: Severity [12]: Middle
